Data set [1] in a line: Equilibrium solubility in aqueous media at ambient temperature, HPLC after 24 hours. The note with it: for Amt Dissolved: 24 hours equilibration. The format is physicochemical. As to the method:
Extensive equilibrium solubility determinations were undertaken for both hygroscopic and anhydrous F-I in a variety of aqueous media at ambient temperature. Additionally, the equilibrium solubility of FB Form I was measured at ambient temperature.

Data set [2] in a line: Intrinsic dissolution of 100 mg compact. The class given is physicochemical. The note with it: for % of 100 mg Compact Dissolved in 10 Minutes: Dissolution Medium 0.1 N HCl. As to the method: To confirm that variability in the hygroscopicity of F-I lots should not adversely impact bioavailability, intrinsic dissolution rates were also measured for the hygroscopic and anhydrous F-I. For comparison purposes, the intrinsic dissolution rate of FB Form I was also measured.

A short description of data set [3]: Plasma pharmacokinetics after single oral gavage, cross-over design. The format is in vivo. The note with it: fed female beagle dogs; for AUC0-24 / AUC0-inf / Cmax: single oral 5 mg/kg by gavage, individual animals 1-6, 5 mg/kg. As to the method: The 6 dogs were randomized into two treatment groups to receive single doses of FB Form I followed by a single dose of F-I two weeks later, or vice versa. On Days 1 and 14, 3 dogs received FB Form 1 and 3 dogs received F-I, and blood samples were collected at 0.5, 1, 2, 3, 4, 8, 12 and 24 hours post dosing. Concentrations of FB Form I were determined by liquid chromatography tandem mass spectrometry.

Data set [4] is described as follows: Hygroscopicity / moisture sorption (weight gain vs RH). The format is physicochemical. From the text: The different water contents prompted an investigation into the moisture sorption characteristics of those lots of crystalline FB-HCl that were not anhydrous. […] Crystalline FB-HCl material capable of water sorption is hereafter referred to as “hygroscopic F-I”.

Data set [5] concerns VEGF-induced neo-angiogenesis. As to the kind of experiment: VEGF-induced neo-angiogenesis in the rat corneal micropocket. The note with it: administered orally for 10 days. The format is in vivo. An excerpt: (§1) The salt of the present invention is an inhibitor of vascular endothelial growth factor (VEGF)-induced angiogenesis. […] These assay systems are more fully described in WO 02/02116. The salt of the present invention is, thus, effective in treating cancer and inhibiting tumor growth.

For data set [6], the system named is VEGF-stimulated proliferation of HUVEC cells. Description: VEGF-stimulated proliferation of HUVEC cells in culture. The class given is cell-based. The note with it: 72 hours of exposure.
Text: as §1

The mark [7] stands for this setting: 0.01 N HCl, ambient temperature.
The mark [8] stands for this setting: SIF, fed pH 5.0, ambient temperature.
Where [9] appears, read: pH 2.2 buffer, ambient temperature.

Values joined by “and” are separate entries in the source; they are usually repeats but may differ in a detail not shown here. Equal values may be shown once. Read-outs that look alike come from different tables or passages of the source.

As for `Cn1cc(C2=C(c3cn(C4CCN(Cc5ccccn5)CC4)c4ccccc34)C(=O)NC2=O)c2ccccc21` [FB Form I], the “Filtrate pH” value in data set [1] (0.01 N HCl) amounted to 2.20; in data set [1] (SIF, fed pH 5.0), 4.94; in data set [1] (pH 2.2 buffer), 2.21. Besides, the “Amt Dissolved” value in data set [1] (setting [7]) was 0.279 mg/mL and 0.355 mg/mL; in data set [1] (setting [8]), 0.073 mg/mL and 0.074 mg/mL; in data set [1] (setting [9]), 0.346 mg/mL and 0.336 mg/mL. Besides, in data set [2], the “dissolution of a 100 mg compact within 10 minutes” value is given as more than 10%. The “% of 100 mg Compact Dissolved in 10 Minutes” value in data set [2] is more than 30%. The AUC0-24 in data set [3] was 2.4431 µM·h and 0.3893 µM·h and 2.0924 µM·h and 3.4775 µM·h and 5.1195 µM·h and 2.2702 µM·h. Also, the AUC0-inf in data set [3] is 2.5786 µM·h and 0.4006 µM·h and 2.1139 µM·h and 3.6031 µM·h and 5.3331 µM·h and 2.3063 µM·h. In addition, the Cmax – broadly, the peak of the concentration-time curve – in data set [3] is 336 nM and 99.8 nM and 532 nM and 600 nM and 552 nM and 718 nM.

Turning to tartrate, the hygroscopicity result in data set [4] is given as “only slightly hygroscopic”. The compound further had a weight gain in data set [4] (at RH's up to 70%) of approximately 1%.

For `Cl.Cn1cc(C2=C(c3cn(C4CCN(Cc5ccccn5)CC4)c4ccccc34)C(=O)NC2=O)c2ccccc21` [F-I], the hygroscopicity entry in data set [4] was “not significantly hygroscopic”. The compound also displayed a weight gain in data set [4] (at 95% RH) of less than 2%. The hygroscopicity entry in data set [4] (between 0-70% RH) is listed as “relatively non-hygroscopic”. For the same compound, the “plasma exposure (AUC 0 to 24 hr and 0 to infinity) compared with FB Form I” value in data set [3] (single oral 5 mg/kg) is on record as “significantly higher”. Further, in data set [3] (mono-hydrochloride), the AUC0-24 is 3.5923 µM·h and 1.735 µM·h and 2.97 µM·h and 4.0644 µM·h and 6.1501 µM·h and 2.9445 µM·h; the AUC0-inf is 3.8286 µM·h and 1.7984 µM·h and 3.0161 µM·h and 4.2008 µM·h and 6.6308 µM·h and 2.9983 µM·h; the Cmax was 481 nM and 327 nM and 679 nM and 501 nM and 774 nM and 450 nM. In data set [5], the “inhibition of VEGF-induced neo-angiogenesis in the rat corneal micropocket” value is listed as “highly effective inhibitor”. In data set [6], the “inhibition of VEGF-stimulated proliferation of HUVEC cells” value was “potent inhibitor”.

Take `Cl.Cn1cc(C2=C(C3CCN(Cc4ccccn4)CC3)C(=O)NC2=O)c2ccccc21` [Hygroscopic F-I]: the maximum moisture sorption in data set [4] (at 40% RH) is recorded as 1.6%. For the same compound, the “Filtrate pH” value in data set [1] (0.01 N HCl) came to 2.25; in data set [1] (SIF, fed pH 5.0), 4.93; in data set [1] (pH 2.2 buffer) it was 2.26. The “Amt Dissolved” value in data set [1] (setting [7]) was 0.046 mg/mL and 0.053 mg/mL; in data set [1] (setting [8]), 0.014 mg/mL and 0.015 mg/mL; in data set [1] (setting [9]) it was 0.324 mg/mL and 0.352 mg/mL. Moreover, in data set [2], the “dissolution of a 100 mg compact within 10 minutes” value was “no appreciable dissolution”. In data set [2], the “% of 100 mg Compact Dissolved in 10 Minutes” value is listed as <<0.5%.
